# Assay results reported in article PMC13124246 (European journal of medicinal chemistry, 2022).
# Structures can show the parent of a compound that is named as a salt.
# Assays:
# [1] = test system: Mouse myoblasts cell line C2C12; experiment: Host cell cytotoxicity; assay type: cell-based; details: mouse myoblasts vs T. cruzi, compounds tested up to 10 μM
# [2] = test system: cruzain or TbrCatL; experiment: Screening of the Krake et al. compound set against cruzain and TbrCatL; assay type: biochemical; details: 100 μM
# [3] = molecular target: cruzain (Trypanosoma cruzi, UniProt P25779); experiment: Cruzain enzymatic inhibition assay; assay type: biochemical; details: for competitive behavior against cruzain: compound at 1 and 0.25 μM, substrate 0.156–10 μM
# [4] = molecular target: T1, TbrCatL (Trypanosoma brucei rhodesiense, UniProt Q95PM0); assay type: biochemical, T. brucei
# [5] = test system: cathepsins B (rat); details: rat enzyme; cited from earlier work
# [6] = test system: cathepsins S (human); details: human enzyme; cited from earlier work
# [7] = test system: macrophages; details: cited from earlier work
# [8] = test system: T. cruzi Y strain parasites; details: in vitro; cited from earlier work
# [9] = molecular target: T1, TbrCatL; details: read-out: IC50 TbrCatL; cited from earlier work
# cruzain, sequence (P25779 123-337 limits assumed): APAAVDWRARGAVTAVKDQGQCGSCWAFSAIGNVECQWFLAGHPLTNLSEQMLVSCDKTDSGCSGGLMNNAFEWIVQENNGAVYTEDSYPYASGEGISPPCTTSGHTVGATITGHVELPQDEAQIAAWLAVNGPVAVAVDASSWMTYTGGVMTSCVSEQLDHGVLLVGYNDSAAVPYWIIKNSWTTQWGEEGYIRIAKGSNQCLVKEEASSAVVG
smiles,measurement,setting,value
O=C(Cn1ccnc1[N+](=O)[O-])NCc1ccccc1 [Benznidazole],SI: selectivity index determined as CC50/EC50,[1],> 9
CN(C)CCCNCc1ccc(-c2ccc(Cl)cc2Cl)o1 [Compound 9],average inhibition against cruzain or TbrCatL,[2],greater than 70%
CN(C)CCCNCc1ccc(-c2ccc(Br)cc2)o1 [Compound 12],average inhibition against cruzain or TbrCatL,[2],greater than 70%
"Clc1cc(Br)ccc1-c1ccc(CNCCN2CCOCC2)o1 [Compound 39, N-((5-(4-bromo-2-chlorophenyl)furan-2-yl)methyl)-2-morpholinoethan-1-amine dihydrochloride]",SI: selectivity index determined as CC50/EC50,[1],> 17
"N/C(S)=N/N=C/c1ccc(-c2ccc(Cl)cc2)o1 [Compound 44, 2-((5-(4-chlorophenyl)furan-2-yl)methylene)hydrazine-1-carbothioamide]",SI: selectivity index determined as CC50/EC50,[1],> 18
same,IC50 against cruzain relative to IC50 against TbrCatL (fold higher),[3]; Table 2 values,up to 25 fold
same,competitive behavior against cruzain,[3],did not observe competitive behavior
same,effect of 0.1% Triton X-100 on IC50 against TbrCatL,[4],reduced the compounds’ potencies
"NC(=S)N/N=C/c1ccc(-c2ccc(Br)cc2Cl)o1 [Compound 45, 2-((5-(4-bromo-2-chlorophenyl)furan-2-yl)methylene)hydrazine-1-carbothioamide]",SI: selectivity index determined as CC50/EC50,[1],> 370
same,competitive behavior against cruzain,[3],did not observe competitive behavior
same,effect of 0.1% Triton X-100 on IC50 against TbrCatL,[4],reduced the compounds’ potencies
"Clc1cc(Br)ccc1-c1ccc(CNCC2CCNCC2)o1 [MB12, 1-(5-(4-bromo-2-chlorophenyl)furan-2-yl)-N-(piperidin-4-ylmethyl)methanamine]",inhibition of cathepsin B,[5],did not inhibit
same,inhibition of cathepsin S,[6],did not inhibit
same,cytotoxicity by lactate dehydrogenase release,[7],no significant cytotoxicity
same,replication of T. cruzi Y strain parasites and release from macrophages,[8],decreased the replication
same,IC50,[9],50 µM
